Literature values as cited in patent US20190224118A1, “ORAL GASTRORETENTIVE FORMULATIONS AND USES THEREOF” (INTEC PHARMA LTD., priority 2016, published 2019).

Compound | number of metabolites identified in urine (urine) | plasma levels of active 11-hydroxy metabolite, oral administration versus smoking (oral versus smoking)
C=C(C)[C@@H]1CCC(C)=C[C@H]1c1c(O)cc(CCCCC)cc1O [CBD, cannabidiol] | more than 33 | 
CCCCCc1cc(O)c2c(c1)OC(C)(C)[C@@H]1CCC(C)=C[C@@H]21 [Δ9-THC, Δ-9-tetrahydrocannabinol] |  | about three
